This is an account of results in patent US12495798B2, “Nicotinamide compound and herbicidal composition comprising compound” (KOREA RESEARCH INSTITUTE OF CHEMICAL TECHNOLOGY, priority 2019, dated 2025).

Common to all, as to assay type: in vivo
Assay [1] has as its system bindweed. The experiment in a line: Herbicidal activity test against upland field weeds (soil treatment test). Also noted: key to Soil treatment herbicidal activity, Bindweed: 0 (no control); 100 (complete control). The conditions noted are these: scale 0 (no control) to 100 (complete control). Summed up: (§1)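 Pre-emergence soil surface spray, day after sowing, into sandy loam pots with fertilizer; compounds at 50 or 75 g a.i./ha in 50% acetone, 0.1% Tween-20. Greenhouse at 30±5 °C, 14/10 h light/dark; visual control rated 0–100 against untreated after 14 days (21 if needed).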

Assay [2] has as its system black nightshade. The assay is described as above. More on the design: key to Soil treatment herbicidal activity, black nightshade: 0 (no control); 100 (complete control). The conditions noted are these: scale 0 (no control) to 100 (complete control); for pest or weed control at 50 g/ha: Solanum nigrum. In a few lines: as §1
The test system of assay [3] is cocklebur. The experiment in a line: Herbicidal activity test against upland field weeds (foliar treatment test). Also noted: key to Foliar treatment herbicidal activity, Cocklebur: 0 (no control); 100 (complete control). The following applies: scale 0-100; for pest or weed control at 50 g/ha / Foliar treatment herbicidal activity, Cocklebur: 50 g ai/ha. Summed up: (§2)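 Greenhouse-grown plants (30±5 °C, 14/10 h light/dark) foliar hand-sprayed with compound in 50% acetone, 0.1% Tween-20 at 50 or 75 g a.i./ha. Control visually scored 0 (none) to 100 (complete) versus untreated after 14 days, or 21 days if needed.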

In assay [4] the test system is black nightshade. The assay is described as above. Also noted: key to Foliar treatment herbicidal activity, black nightshade: 0 (no control); 100 (complete control). The following applies: scale 0-100. Summed up:
as §2

Assay [5] concerns cocklebur. As to the kind of experiment: Herbicidal activity test against upland field weeds (soil treatment test). More on the design: key to Soil treatment herbicidal activity, Cocklebur: 0 (no control); 100 (complete control). The following applies: scale 0 (no control) to 100 (complete control); for Soil treatment herbicidal activity, Cocklebur / pest or weed control at 50 g/ha: 50 g ai/ha. In a few lines:
as §1

The test system of assay [6] is velvetleaf. The description is as above. The conditions noted are these: scale 0 (no control) to 100 (complete control); for pest or weed control at 50 g/ha: Abutilon theophrasti, read-out: Soil treatment herbicidal activity, velvet leaf. More on the design: key to Soil treatment herbicidal activity, velvet leaf: 0 (no control); 100 (complete control). In a few lines:
as §1

The mark [7] stands for this setting: Xanthium strumarium, 75 g ai/ha.

Molecules are shown by their SMILES.

Consider `Cn1nnnc1NC(=O)c1ccc(C(F)(F)F)nc1OCc1nnnn1C(F)F` [Compound No. 1-26, 2-((1-(difluoromethyl)-1H-tetrazol-5-yl)methoxy)-N-(1-methyl-1H-tetrazol-5-yl)-6-(trifluoromethyl)nicotinamide], for which the “Soil treatment herbicidal activity, Bindweed” value in assay [1] (50 g ai/ha) is recorded as 0. Further, in assay [2] (50 g ai/ha), the “Soil treatment herbicidal activity, black nightshade” value turned out to be 100. The compound also displayed a pest or weed control at 50 g/ha in assay [3] (Xanthium strumarium) of 70%. Besides, the “Foliar treatment herbicidal activity, black nightshade” value in assay [4] (50 g ai/ha) is listed as 100. Moreover, in assay [5], the “Soil treatment herbicidal activity, Cocklebur” value is on record as 0. For the same compound, in assay [6] (50 g ai/ha), the “Soil treatment herbicidal activity, velvet leaf” value was 100.

Consider `Cn1nnnc1COc1nc(C(F)(F)F)ccc1C(=S)Nc1nnnn1C` [Compound No. 1-43, N-(1-methyl-1H-tetrazol-5-yl)-2-((1-methyl-1H-tetrazol-5-yl)methoxy)-6-(trifluoromethyl)pyridin-3-carbothioamide], for which the “Soil treatment herbicidal activity, Bindweed” value in assay [1] (50 g ai/ha) was found to be 0. For the same compound, the “Soil treatment herbicidal activity, black nightshade” value in assay [2] (50 g ai/ha) was 0. The pest or weed control at 50 g/ha in assay [3] (Xanthium strumarium) and in assay [6] (50 g ai/ha) was 90% throughout. In addition, the “Foliar treatment herbicidal activity, black nightshade” value in assay [4] (50 g ai/ha) came to 100. Further, in assay [5], the “Soil treatment herbicidal activity, Cocklebur” value was 0.

Regarding `Cn1ncnc1COc1nc(C(F)(F)F)ccc1C(=O)Nc1nnnn1C` [Compound No. 1-45, 2-((1-methyl-1H-1,2,4-triazol-5-yl)methoxy)-N-(1-methyl-1H-tetrazol-5-yl)-6-(trifluoromethyl)nicotinamide], the “Soil treatment herbicidal activity, Bindweed” value in assay [1] (50 g ai/ha) is 0. Also, in assay [2] (50 g ai/ha), the “Soil treatment herbicidal activity, black nightshade” value worked out at 100. The pest or weed control at 50 g/ha in assay [3] (Xanthium strumarium) was found to be 95%. Moreover, the “Foliar treatment herbicidal activity, black nightshade” value in assay [4] (50 g ai/ha) is 100. The “Soil treatment herbicidal activity, Cocklebur” value in assay [5] was 0. Moreover, the “Soil treatment herbicidal activity, velvet leaf” value in assay [6] (50 g ai/ha) is recorded as 100.

Regarding `Cn1nnnc1COCc1nc(C(F)(F)F)ccc1C(=O)Nc1nnnn1C` [Compound No. 1-61, N-(1-methyl-1H-tetrazol-5-yl)-2-(((1-methyl-1H-tetrazol-5-yl)methoxy)methyl)-6-(trifluoromethyl)nicotinamide], the “Soil treatment herbicidal activity, Bindweed” value in assay [1] (50 g ai/ha) worked out at 0. Moreover, the pest or weed control at 50 g/ha was 98% in assay [2] (50 g ai/ha), 98% in assay [3] (Xanthium strumarium) and 90% in assay [6] (50 g ai/ha). Further, in assay [4] (50 g ai/ha), the “Foliar treatment herbicidal activity, black nightshade” value came out at 100. Also, the “Soil treatment herbicidal activity, Cocklebur” value in assay [5] is 0.

Turning to `Cn1nnc(COc2nc(C(F)(F)F)ccc2C(=O)Nc2nnnn2C)n1` [Compound No. 2-1, N-(1-methyl-1H-tetrazol-5-yl)-2-((2-methyl-2H-tetrazol-5-yl)methoxy)-6-(trifluoromethyl)nicotinamide], in assay [1] (50 g ai/ha), the “Soil treatment herbicidal activity, Bindweed” value was 0. Moreover, the results for the pest or weed control at 50 g/ha in assay [2] (50 g ai/ha) and in assay [3] (Xanthium strumarium) were 90% and 60%, respectively. Besides, the “Foliar treatment herbicidal activity, black nightshade” value in assay [4] (50 g ai/ha) turned out to be 100. Moreover, the “Soil treatment herbicidal activity, Cocklebur” value in assay [5] is recorded as 0. Further, in assay [6] (50 g ai/ha), the “Soil treatment herbicidal activity, velvet leaf” value is on record as 0.

Regarding `CN(Cc1nnn(C)n1)c1nc(C(F)(F)F)ccc1C(=O)Nc1nnnn1C` [Compound No. 2-26, 2-(methyl((2-methyl-2H-tetrazol-5-yl)methyl)amino)-N-(1-methyl-1H-tetrazol-5-yl)-6-(trifluoromethyl)nicotinamide], in assay [1] (75 g ai/ha), the “Soil treatment herbicidal activity, Bindweed” value is reported as 100. Moreover, the “Soil treatment herbicidal activity, black nightshade” value in assay [2] (75 g ai/ha) was determined as 100. Also, the pest or weed control at 75 g/ha in assay [3] (setting [7]) and in assay [5] (setting [7]) was 98% each time. Further, the “Foliar treatment herbicidal activity, black nightshade” value in assay [4] (75 g ai/ha) came to 100. Further, the “Soil treatment herbicidal activity, velvet leaf” value in assay [6] (75 g ai/ha) was determined as 100.

Take `CON(Cc1nnn(C)n1)c1nc(C(F)(F)F)ccc1C(=O)Nc1nnnn1C` [Compound No. 2-30, 2-(methoxy((2-methyl-2H-tetrazol-5-yl)methyl)amino)-N-(1-methyl-1H-tetrazol-5-yl)-6-(trifluoromethyl)nicotinamide]: the pest or weed control at 50 g/ha in assay [1] (50 g ai/ha) was found to be 70%; in assay [3] (Xanthium strumarium), 98%; in assay [5] (Xanthium strumarium), 90%. In assay [2] (50 g ai/ha), the “Soil treatment herbicidal activity, black nightshade” value was found to be 100. Also, the “Foliar treatment herbicidal activity, black nightshade” value in assay [4] (50 g ai/ha) worked out at 100. For the same compound, in assay [6] (50 g ai/ha), the “Soil treatment herbicidal activity, velvet leaf” value is listed as 100.

In the case of `Cn1nnc(COCc2nc(C(F)(F)F)ccc2C(=O)Nc2nnnn2C)n1` [Compound No. 2-59, N-(1-methyl-1H-tetrazol-5-yl)-2-(((2-methyl-2H-tetrazol-5-yl)methoxy)methyl)-6-(trifluoromethyl)nicotinamide], the pest or weed control at 50 g/ha in assay [1] (50 g ai/ha) is 90%; in assay [3] (Xanthium strumarium) it was 98%; in assay [5] (Xanthium strumarium) it was 20%. The “Soil treatment herbicidal activity, black nightshade” value in assay [2] (50 g ai/ha) came to 100. In assay [4] (50 g ai/ha), the “Foliar treatment herbicidal activity, black nightshade” value was determined as 100. Also, the “Soil treatment herbicidal activity, velvet leaf” value in assay [6] (50 g ai/ha) worked out at 100.

As for `Cn1nnc(COCc2nc(C(F)F)ccc2C(=O)Nc2nnnn2C)n1` [Compound No. 2-84, 6-(difluoromethyl)-N-(1-methyl-1H-tetrazol-5-yl)-2-(((2-methyl-2H-tetrazol-5-yl)methoxy)methyl)nicotinamide], the pest or weed control at 50 g/ha in assay [1] (50 g ai/ha) worked out at 40%; in assay [3] (Xanthium strumarium), 95%. In assay [2] (50 g ai/ha), the “Soil treatment herbicidal activity, black nightshade” value is given as 100. In addition, the “Foliar treatment herbicidal activity, black nightshade” value in assay [4] (50 g ai/ha) is on record as 100. In addition, the “Soil treatment herbicidal activity, Cocklebur” value in assay [5] is listed as 0. Moreover, in assay [6] (50 g ai/ha), the “Soil treatment herbicidal activity, velvet leaf” value came out at 100.

For `Cn1cnc(COCc2nc(C(F)F)ccc2C(=O)Nc2nnnn2C)n1` [Compound No. 2-85], the “Soil treatment herbicidal activity, Bindweed” value in assay [1] (50 g ai/ha) came to 35. Also, in assay [2] (50 g ai/ha), the “Soil treatment herbicidal activity, black nightshade” value was determined as 93. Moreover, in assay [3], the “Foliar treatment herbicidal activity, Cocklebur” value is recorded as 97. The “Foliar treatment herbicidal activity, black nightshade” value in assay [4] (50 g ai/ha) was 100. The “Soil treatment herbicidal activity, Cocklebur” value in assay [5] is 25. Moreover, the “Soil treatment herbicidal activity, velvet leaf” value in assay [6] (50 g ai/ha) is given as 20.

Turning to `Cn1nnc(CS(=O)(=O)Cc2nc(C(F)(F)F)ccc2C(=O)Nc2nnnn2C)n1` [Compound No. 2-105, N-(1-methyl-1H-tetrazol-5-yl)-2-((((2-methyl-2H-tetrazol-5-yl)methyl)sulfonyl)methyl)-6-(trifluoromethyl)nicotinamide], the pest or weed control at 50 g/ha in assay [1] (50 g ai/ha) amounted to 30%; in assay [2] (50 g ai/ha) it was 60%; in assay [3] (Xanthium strumarium), 98%; in assay [5] (Xanthium strumarium) it was 98%. In assay [4] (50 g ai/ha), the “Foliar treatment herbicidal activity, black nightshade” value turned out to be 100. Moreover, the “Soil treatment herbicidal activity, velvet leaf” value in assay [6] (50 g ai/ha) was determined as 100.

Turning to `Cn1nnc(CSCc2nc(C(F)F)ccc2C(=O)Nc2nnnn2C)n1` [Compound No. 2-108, 6-(difluoromethyl)-N-(1-methyl-1H-tetrazol-5-yl)-2-((((2-methyl-2H-tetrazol-5-yl)methyl)thio)methyl)nicotinamide], the “Soil treatment herbicidal activity, Bindweed” value in assay [1] (50 g ai/ha) stood at 0. Further, the pest or weed control at 50 g/ha in assay [2] (50 g ai/ha) was found to be 30%; in assay [3] (Xanthium strumarium), 98%. For the same compound, the “Foliar treatment herbicidal activity, black nightshade” value in assay [4] (50 g ai/ha) came to 100. Also, the “Soil treatment herbicidal activity, Cocklebur” value in assay [5] stood at 0. The “Soil treatment herbicidal activity, velvet leaf” value in assay [6] (50 g ai/ha) came out at 0.

Turning to `Cn1nnc(CSCc2nc(C(F)(F)F)ccc2C(=O)N(C(=O)c2ccccc2)c2nnnn2C)n1` [Compound No. 2-109, N-benzoyl-N-(1-methyl-1H-tetrazol-5-yl)-2-((((2-methyl-2H-tetrazol-5-yl)methyl)thio)methyl)-6-(trifluoromethyl)nicotinamide], in assay [1] (50 g ai/ha), the “Soil treatment herbicidal activity, Bindweed” value came out at 0. In addition, the “Soil treatment herbicidal activity, black nightshade” value in assay [2] (50 g ai/ha) was 100. Moreover, the “Foliar treatment herbicidal activity, Cocklebur” value in assay [3] is recorded as 100. In assay [4] (50 g ai/ha), the “Foliar treatment herbicidal activity, black nightshade” value came to 100. Moreover, in assay [5], the “Soil treatment herbicidal activity, Cocklebur” value is on record as 0. Besides, in assay [6] (50 g ai/ha), the “Soil treatment herbicidal activity, velvet leaf” value turned out to be 100.

Turning to `COC(=O)OC(C)N(C(=O)c1ccc(C(F)(F)F)nc1COCc1nnn(C)n1)c1nnnn1C` (stereo not drawn) [Compound No. 4-4, methyl(1-(N-(1-methyl-1H-tetrazol-5-yl)-2-(((2-methyl-2H-tetrazol-5-yl)methoxy)methyl)-6-(trifluoromethyl)nicotinamido)ethyl)carbonate], the “Soil treatment herbicidal activity, Bindweed” value in assay [1] (50 g ai/ha) came to 0. Further, the “Soil treatment herbicidal activity, black nightshade” value in assay [2] (50 g ai/ha) was 100. Also, the “Foliar treatment herbicidal activity, Cocklebur” value in assay [3] was determined as 98. In assay [4] (50 g ai/ha), the “Foliar treatment herbicidal activity, black nightshade” value is given as 100. Also, in assay [5], the “Soil treatment herbicidal activity, Cocklebur” value worked out at 0. Besides, the “Soil treatment herbicidal activity, velvet leaf” value in assay [6] (50 g ai/ha) is recorded as 100.
